Reference: the NIST ThermoML archive (doi:10.1021/acs.jced.8b00132)
Several values for one entry are separate records, joined by “and”; a condition that tells them apart may be missing. Identical values can stand only once.

Conditions: Gas, transient hot wire

O=C(C(F)(F)C(F)(F)F)C(F)(C(F)(F)F)C(F)(F)F [dodecafluoro-2-methylpentan-3-one]
Conditions	thermal conductivity
499.92 K, 25604 kPa	0.05225 W/m/K
499.93 K, 870 kPa	0.02694 W/m/K
499.93 K, 6552 kPa	0.0387 W/m/K
499.93 K, 13400 kPa	0.04487 W/m/K
499.93 K, 18421 kPa	0.04818 W/m/K
499.94 K, 869 kPa	0.0272 W/m/K
499.94 K, 18421 kPa	0.0482 W/m/K
499.95 K, 5597 kPa	0.03741 W/m/K
499.96 K, 2952 kPa	0.03132 W/m/K
499.96 K, 3620 kPa	0.0341 W/m/K
499.97 K, 25600 kPa	0.05221 W/m/K
499.97 K, 25604 kPa	0.05228 W/m/K
499.98 K, 645 kPa	0.02717 W/m/K
499.99 K, 10173 kPa	0.04254 W/m/K
499.99 K, 13400 kPa	0.04504 W/m/K
499.99 K, 13402 kPa	0.04506 W/m/K
499.99 K, 18421 kPa	0.04841 W/m/K
500 K, 646 kPa	0.02728 W/m/K
500 K, 2952 kPa	0.03119 W/m/K
500 K, 3286 kPa	0.03306 W/m/K and 0.03284 W/m/K
500 K, 6554 kPa	0.03863 W/m/K
500 K, 6555 kPa	0.03872 W/m/K
500 K, 8108 kPa	0.04046 W/m/K
500 K, 10172 kPa	0.04249 W/m/K
500.01 K, 1594 kPa	0.02714 W/m/K
500.01 K, 2129 kPa	0.02838 W/m/K
500.02 K, 1594 kPa	0.02737 W/m/K
500.02 K, 2129 kPa	0.0285 W/m/K
500.02 K, 2565 kPa	0.02947 W/m/K
500.02 K, 2566 kPa	0.0295 W/m/K
500.02 K, 8108 kPa	0.04041 W/m/K
500.02 K, 18425 kPa	0.0483 W/m/K
500.05 K, 419 kPa	0.02753 W/m/K
500.06 K, 419 kPa	0.02752 W/m/K
500.07 K, 10171 kPa	0.04243 W/m/K
500.08 K, 870 kPa	0.02705 W/m/K and 0.02701 W/m/K
500.08 K, 6554 kPa	0.03889 W/m/K and 0.03865 W/m/K
500.08 K, 8107 kPa	0.04045 W/m/K
500.08 K, 18421 kPa	0.04829 W/m/K
500.09 K, 2952 kPa	0.03151 W/m/K
500.1 K, 2952 kPa	0.03143 W/m/K
500.1 K, 8107 kPa	0.04058 W/m/K
500.1 K, 13402 kPa	0.04498 W/m/K
500.12 K, 644 kPa	0.02715 W/m/K
500.13 K, 645 kPa	0.02741 W/m/K
500.13 K, 1594 kPa	0.02735 W/m/K
500.14 K, 2565 kPa	0.0296 W/m/K
500.15 K, 1594 kPa	0.02739 W/m/K
500.15 K, 10171 kPa	0.04243 W/m/K
500.16 K, 419 kPa	0.02764 W/m/K
500.16 K, 10174 kPa	0.04246 W/m/K
500.16 K, 13402 kPa	0.04495 W/m/K
500.17 K, 6553 kPa	0.03885 W/m/K
500.17 K, 8107 kPa	0.04052 W/m/K
500.17 K, 8287 kPa	0.04057 W/m/K
500.17 K, 13401 kPa	0.04512 W/m/K
500.18 K, 6551 kPa	0.03865 W/m/K
500.18 K, 8108 kPa	0.04052 W/m/K
500.18 K, 8283 kPa	0.0406 W/m/K
500.2 K, 419 kPa	0.02743 W/m/K
500.23 K, 871 kPa	0.02696 W/m/K
500.24 K, 872 kPa	0.02702 W/m/K
500.24 K, 2563 kPa	0.02975 W/m/K and 0.02983 W/m/K
500.25 K, 6550 kPa	0.0387 W/m/K
500.25 K, 10172 kPa	0.04247 W/m/K
500.26 K, 6550 kPa	0.0388 W/m/K
500.27 K, 8107 kPa	0.04068 W/m/K and 0.04066 W/m/K
500.27 K, 8290 kPa	0.04063 W/m/K
500.27 K, 8294 kPa	0.04069 W/m/K
500.28 K, 643 kPa	0.02732 W/m/K and 0.02714 W/m/K
500.33 K, 419 kPa	0.02775 W/m/K
500.34 K, 418 kPa	0.02786 W/m/K
500.35 K, 8106 kPa	0.0405 W/m/K
500.36 K, 8300 kPa	0.04074 W/m/K
500.37 K, 8107 kPa	0.04059 W/m/K
500.4 K, 872 kPa	0.02701 W/m/K
500.4 K, 874 kPa	0.02698 W/m/K
500.43 K, 643 kPa	0.02726 W/m/K
500.45 K, 643 kPa	0.0272 W/m/K
500.46 K, 8304 kPa	0.04072 W/m/K
500.46 K, 8307 kPa	0.04066 W/m/K
500.48 K, 417 kPa	0.02764 W/m/K
500.49 K, 417 kPa	0.02771 W/m/K
500.58 K, 8309 kPa	0.04075 W/m/K
